The target in the assay is T1, USP28 (His-tagged USP28-FL-mammalian) (Homo sapiens, UniProt Q96RU2).
T1 construct: Expression of USP28 (1-1077)-TEV-6*His (pTT5 vector); made in house; host or cells: Expi293f cells (pTT5 vector)
T1 sequence (Q96RU2 1-1077): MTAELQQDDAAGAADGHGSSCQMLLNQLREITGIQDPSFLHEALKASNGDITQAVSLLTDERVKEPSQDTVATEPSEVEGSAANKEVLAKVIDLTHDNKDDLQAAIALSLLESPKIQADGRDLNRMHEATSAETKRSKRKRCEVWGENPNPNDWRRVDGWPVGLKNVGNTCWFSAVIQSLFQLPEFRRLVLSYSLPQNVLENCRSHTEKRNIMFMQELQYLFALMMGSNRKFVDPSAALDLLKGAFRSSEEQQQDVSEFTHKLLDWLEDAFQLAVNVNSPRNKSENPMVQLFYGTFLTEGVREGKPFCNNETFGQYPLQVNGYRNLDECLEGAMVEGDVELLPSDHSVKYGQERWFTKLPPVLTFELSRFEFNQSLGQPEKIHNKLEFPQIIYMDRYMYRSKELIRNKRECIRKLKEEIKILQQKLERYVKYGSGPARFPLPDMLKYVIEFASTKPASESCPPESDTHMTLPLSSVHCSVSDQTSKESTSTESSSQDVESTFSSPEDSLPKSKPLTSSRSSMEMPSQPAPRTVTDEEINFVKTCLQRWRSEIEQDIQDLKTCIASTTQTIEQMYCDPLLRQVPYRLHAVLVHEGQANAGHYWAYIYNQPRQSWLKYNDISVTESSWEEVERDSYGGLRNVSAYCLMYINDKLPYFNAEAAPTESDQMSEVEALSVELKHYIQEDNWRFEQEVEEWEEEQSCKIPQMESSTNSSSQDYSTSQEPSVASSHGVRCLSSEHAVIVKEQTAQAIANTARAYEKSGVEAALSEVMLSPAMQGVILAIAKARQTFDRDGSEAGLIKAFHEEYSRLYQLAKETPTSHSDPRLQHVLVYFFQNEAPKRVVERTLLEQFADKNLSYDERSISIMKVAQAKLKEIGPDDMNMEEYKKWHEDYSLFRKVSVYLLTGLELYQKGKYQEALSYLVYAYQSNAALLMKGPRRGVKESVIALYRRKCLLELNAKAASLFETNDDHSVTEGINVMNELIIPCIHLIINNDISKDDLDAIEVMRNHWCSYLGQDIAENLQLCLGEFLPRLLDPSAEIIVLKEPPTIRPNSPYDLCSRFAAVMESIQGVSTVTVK
As to the kind of experiment: Ubiquitin-Rhodamine 110 Assay for USP28 Activity, Example A-1(a). The class given is biochemical. The following applies: Ubiquitin-Rhodamine 110 assay, format Example A-1(a); read-out: USP28 A-1(a) IC50 range. In a few lines:
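Full-length His-tagged USP28 (1-1077, Expi293F-expressed; […]) was preincubated 30 min with compound (25 μM–1.3 nM, 10-point 3-fold) in 20 mM Tris-HCl pH 8.0, 3 mM BME, 0.03% BGG, 0.01% Triton X-100. Ub-Rh110 (25 nM) was then added for 45 min at room temperature, stopped with citric acid, and read by fluorescence (485/535 nm).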

Broadly, the IC50 is the point on the concentration scale where inhibition reaches its midpoint.

Structures are written as SMILES.

As to `Cc1ccc2c(N)c(C(=O)N[C@@H]3CCc4c(ccc(N5CC6CCC(C5)N6)c4C#N)C3)sc2n1` (single isomer, unassigned) [Example 14-1], the half-inhibitory concentration (IC50) was in the range of 1 to 50 nM.

For `Cc1ccc2c(N)c(C(=O)N[C@H]3CCc4c(ccc(N5CC6CCC(C5)N6)c4C#N)C3)sc2n1` (single isomer, unassigned) [Example 14-2], the IC50 lay within 50 to 200 nM.

As for `Cc1ccc2c(N)c(C(=O)N[C@@H]3CCc4cc(N5CC6CCC(C5)N6)c(C#N)cc4C3)sc2n1` (single isomer, unassigned) [Example 14-3], the IC50 lay within 200 to 2000 nM.

Regarding `Cc1ccc2c(N)c(C(=O)N[C@H]3CCc4cc(N5CC6CCC(C5)N6)c(C#N)cc4C3)sc2n1` (single isomer, unassigned) [Example 14-4], the IC50 fell in the range of 1 to 50 nM.

Take `Cc1cnc2c(N)c(C(=O)N[C@@H]3CCc4c(ccc(N5CC6CCC(C5)N6)c4C#N)C3)sc2n1` (single isomer, unassigned) [Example 14-5]: the IC50 was 1 to 50 nM.

On to `Cc1cnc2c(N)c(C(=O)N[C@H]3CCc4c(ccc(N5CC6CCC(C5)N6)c4C#N)C3)sc2n1` (single isomer, unassigned) [Example 14-6], for which the IC50 was 200 to 2000 nM.

Consider `Cc1cnc2c(N)c(C(=O)N[C@@H]3CCc4cc(N5CC6CCC(C5)N6)c(C#N)cc4C3)sc2n1` (single isomer, unassigned) [Example 14-7], for which the IC50 fell in the range of 200 to 2000 nM.

As for `Cc1cnc2c(N)c(C(=O)N[C@H]3CCc4cc(N5CC6CCC(C5)N6)c(C#N)cc4C3)sc2n1` (single isomer, unassigned) [Example 14-8], the IC50 is 1 to 50 nM.
